This note sets out measurements from patent publication US9708315B2, “1,2,4-triazolo[4,3-a]pyridine compounds and their use as positive allosteric modulators of MGLUR2 receptors” (Janssen Pharmaceutica NV, priority 2013, dated 2017).

Format in all cases: in vivo
One data set relates to male Wiga Wistar rats. Kind of data set: Conditioned avoidance response (CAR) test in rats. As to conditions: Rattus norvegicus, PO, suspension in 20% hydroxypropyl-b-cyclodextrin containing 1% polysorbate 80. The text has this: The apparatus consisted of an inner box surrounded by an outer box. The inner box was composed of four walls of transparent, synthetic material (length×width×height: 30×30×30 cm), an open top, and a grid floor made of 15 pairs of iron bars (2 mm diameter; 6 mm inter-bar distance). Odd and even bars were connected with a source of alternative current (1.0 mA; Coulbourn Instruments Solid State Shocker/Distributor), which could be interrupted by a switch. The outer box was composed of the same material (length×width×height: 40×40×36 cm), also with an open top, with a distance of 5 cm between the inner and outer box on all sides. To decrease the amount of environmental stimuli, three walls of the outer box were made non-transparent. The front wall was left transparent to allow the necessary inspection of the animal during the test. The upper edge of the outer and inner box served as a target for the rats on which to jump with fore- and hind-paws, respectively. Avoidance Conditioning and Selection of Animals From their arrival in the laboratory on the experimental day, male Wiga Wistar rats (230±30 g) were housed in individual cages provided with bedding material. […] Experimental Sessions The rats were tested 3 times, i.e. at 60, 90 and 120 min after the injection of test compound or solvent. Latency to avoidance was recorded. […]

In data set [1] the test system is Adult male CF No 1 albino mice. Kind of data set: Minimal motor impairment (rotarod) in mice. As to the method: Test compounds were administered using an optimal fluid volume to body fluid ratio. Test compounds were administered to mice in a volume of 0.01 ml/g of body weight (White, H. S., et al., General principles: Experimental selection, quantification, and evaluation of antiepileptic drugs, in Antiepileptic Drugs, Fourth Edition, R. H. Levy, R. H. Mattson, and B. S. Meldrum, Editors. 1995, Raven Press, Ltd.: New York. p. 99-110). The test compound number 6 was administered orally (p.o.). For each of the tests performed on the test compound, a 40% Hydroxypropyl-β-cyclodextrin (Hp-β-CD) stock solution was first prepared and utilized for formulating the test compound number 6 at the desired concentrations for testing via the oral (p.o.) route. Final compound concentrations were administered as suspensions in 20% Hp-β-CD. A 20% Hp-β-CD solution was used for the vehicle groups.
Adult male CF No 1 albino mice (26-35 g) were obtained from Charles River, Portage, Mich. The animals were maintained on an adequate diet (Prolab RMH 3000) and allowed free access to food and water, except during the short time they were removed from their cage for testing. Animals newly received in the laboratory were allowed sufficient time to correct for possible food and water restriction incurred during transit before being employed in testing. All mice were housed in plastic cages in specially constructed rooms with controlled humidity, exchange of air and controlled lighting (12 hours on-12 hours off). The animals were housed, fed, and handled in a manner consistent with the recommendations in the National Council Publication, “Guide for the Care and Use of Laboratory animals.” Experimental Design General Methods Minimal Motor Impairment (MMI):
Acute MMI was assessed by a combination of direct observations of the animal for overt symptoms of the animal's neurological or muscular function. In mice, the rotarod procedure was used to disclose minimal muscular or neurological impairment. When a mouse is placed on a rod that rotates at a speed of 6 rpm, the animal can maintain its equilibrium for long periods of time. The animal was considered toxic if it fell off this rotating rod three times during a 1 min period.
(The rotarod test checks motor coordination on a turning rod.)

The subject of another data set is male NMRI mice. Description: Phencyclidine (PCP)-induced hyperlocomotion in mice. As to conditions: Mus musculus, PO, PCP 5 mg/kg s.c., read-out: ED50 PCP (inhibition of PCP-induced hyperlocomotion). As to the method: On the day of experiments, the mice were brought into the procedural room. They were housed individually and allowed to acclimate for at least a half hour prior to testing. Although the studies were conducted during the light cycle (from 8:00 to 16:00 h), the procedure room was only sparsely lit (3 to 30 LUX) to provide better contrast for the video tracking. Local lighting was used for the injection procedures. During each trial, an individual mouse was placed in an open field arena (grey PVC cylinder with a height of 40 cm and a diameter of 22.5 cm). Each arena was placed on an infrared LED (8×8 LEDs)-lit box (white PVC squared box; 40×40 cm^2; height 12.5 cm). Each mouse was placed in the center of the arena and allowed to explore freely for 30 min. After each trial, the arena was cleaned with a wet and subsequently with a dry cleaning cloth. […] Animal behavior was recorded and analyzed using the Noldus Ethovision XT Video Tracking System (Version 3.1; Noldus, Wageningen, The Netherlands). The total distance traveled (cm) was calculated. […]
Test compound or solvent was administered at a pre-defined time before measurement (standard: 30 min) to male NMRI mice that were challenged with phencyclidine (PCP; 5 mg/kg, s.c.) 30 min before measurement. Activity was measured for a period of 30 min.

Molecules are shown by their SMILES.

One may read the ED50 as the midpoint of the dose-response relation. With `C[C@H](Oc1ccc(F)cc1F)c1ccn2c(CC3CC3)nnc2c1C(F)(F)F` [Compound 6, 3-(Cyclopropylmethyl)-7-[(1S)-1-(2,4-difluorophenoxy)ethyl]-8-(trifluoromethyl)[1,2,4]triazolo[4,3-a]pyridine], the figures for the ED50 in the data set with male Wiga Wistar rats and in the data set with male NMRI mice were 8.1 mg/kg and 28.3 mg/kg, respectively. The “# rotarod motor impairment/# tested” value is recorded as 0/4 in data set [1] (10 mg/kg p.o., 0.25 h); 0/4 in data set [1] (10 mg/kg p.o., 0.5 h); 0/4 in data set [1] (10 mg/kg p.o., 1 h); 0/4 in data set [1] (10 mg/kg p.o., 2 h); 0/4 in data set [1] (10 mg/kg p.o., 4 h); 0/4 in data set [1] (20 mg/kg p.o., 0.25 h). The “# rotarod motor impairment/# tested” value in data set [1] (20 mg/kg p.o., 0.5 h) is reported as 0/4; in data set [1] (20 mg/kg p.o., 1 h), 0/4; in data set [1] (20 mg/kg p.o., 2 h), 0/4; in data set [1] (20 mg/kg p.o., 4 h), 0/4; in data set [1] (dose-response, 6 Hz 32 mA group, 2.5 mg/kg p.o., 0.5 h), 0/8; in data set [1] (dose-response, 6 Hz 32 mA group, 5 mg/kg p.o., 0.5 h), 0/8. The “# rotarod motor impairment/# tested” value is on record as 0/8 in data set [1] (dose-response, 6 Hz 32 mA group, 10 mg/kg p.o., 0.5 h); 0/8 in data set [1] (dose-response, 6 Hz 32 mA group, 20 mg/kg p.o., 0.5 h); 0/8 in data set [1] (dose-response, 6 Hz 44 mA group, 10 mg/kg p.o., 0.5 h); 0/8 in data set [1] (dose-response, 6 Hz 44 mA group, 15 mg/kg p.o., 0.5 h); 0/8 in data set [1] (dose-response, 6 Hz 44 mA group, 20 mg/kg p.o., 0.5 h); 0/8 in data set [1] (dose-response, 6 Hz 44 mA group, 40 mg/kg p.o., 0.5 h).
